The record followed here is patent US4003936A, “2-Hydrocinnampyl-1,3-cyclopentanediones” (Zaidan Hojin Biseibutsu Kagaku Kenkyu Kai, priority 1970, dated 1977).

One series concerns the target T1, tyrosine hydroxylase (Bos taurus, UniProt P17289).
T1 sequence (P17289 1-491): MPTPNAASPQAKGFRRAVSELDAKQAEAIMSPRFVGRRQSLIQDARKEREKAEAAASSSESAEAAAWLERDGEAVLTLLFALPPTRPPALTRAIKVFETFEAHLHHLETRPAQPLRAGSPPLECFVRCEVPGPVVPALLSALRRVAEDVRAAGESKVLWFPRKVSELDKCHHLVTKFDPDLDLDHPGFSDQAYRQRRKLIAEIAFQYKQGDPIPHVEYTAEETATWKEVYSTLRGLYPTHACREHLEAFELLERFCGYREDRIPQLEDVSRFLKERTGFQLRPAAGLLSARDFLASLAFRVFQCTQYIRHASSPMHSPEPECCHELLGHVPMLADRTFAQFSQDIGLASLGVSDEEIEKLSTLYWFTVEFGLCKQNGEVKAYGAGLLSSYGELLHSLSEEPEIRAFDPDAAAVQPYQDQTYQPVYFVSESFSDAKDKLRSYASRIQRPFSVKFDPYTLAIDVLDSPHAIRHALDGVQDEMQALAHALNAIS
The series can be described thus: inhibition of tyrosine hydroxylase (method of J. Antibiot. 23, 514 (1970)). It counts as biochemical. More on the design: inhibition: dose or concentration left out as unconfirmed. To be noted: for inhibition: at 200 meg. (figure after the slash in the cell); for inhibition / inhibition at 0.05 mg / inhibition at 0.1 mg: read-out: Inhibition of the product (1a) to tyrosine hydroxylase; for inhibition at 0.05 mg: at 50 meg. (figure after the slash in the cell); for inhibition at 0.1 mg: at 100 meg. (figure after the slash in the cell). The text has this:
(§1) Pharmacological properties of the new compounds of the present invention are now described. The new compounds of the present invention have been examined for their biological activities, and their inhibition to tyrosine hydroxylase are summarised in Table 2 later. The details of the test methods used and the close relationship of the biological activities between in vitro and in vivo are well presented in some published literatures (for example, see "J. Antibiot." 23, 514 (1970) and "J. Am. Chem. Soc." 93, 1285 (1971)). For instance, 2-(2-hydroxyhydrocinnamoyl)-1,3-cyclopentanedione, typical one of the new compounds of the present invention, was tested by dissolving in distilled water (pH was adjusted to 2.5) and administering to mice. […] Effect of this compound on tyrosine hydroxylase was also tested by the method described in the "Journal of Antibiotics" 23, 514 (1970).
In these Examples, various derivatives of 2cinnamoyl-1,3-cyclopentanedione of the formula [IVa] as prepared in Examples 3 - 34 were converted into the corresponding derivatives of 2-hydrocinnamoyl-1,3-cyclopentanedione of the formula [Ia] by hydrogenating them in the same manner as in the catalytic hydrogenation step of Example 1 (3). Nature of R1 and R2 in the resulting hydrogenation products 2-hydrocinnamoyl-1,3-cyclopentanediones [Ia], their yields, melting point and elementary analysis data are summarised in Table 2 with reference to the amount and nature of the catalyst and solvent which were employed in the catalytic hydrogenation step. In Table 2, there are also shown the degrees of inhibition (%) of the produced derivatives of 2-hydrocinnamoyl-1,3-cyclopentanedione [Ia] to tyrosine hydroxylase to provide a measure of their biological properties, the inhibition degrees as shown being determined by the same method as that used to estimate the inhibition % of 2-(2-hydroxyhydrocinnamoyl)-1,3-cyclopentanedione as mentioned above.

A short description of series [1]: acute toxicity (LD50) in mice. To be noted: mouse, in vivo, dissolved in distilled water pH 2.5.
Excerpt: as §1

The test system of a further series is hypertensive patients. The series can be described thus: daily administration to hypertensive patients for 30 days. It counts as in vivo, human. As to conditions: 300 mcg daily divided into three times.
Series [2] has as its system rats. The series can be described thus: sedative effect after injection of a large dose, rats. It counts as in vivo.
Series [3] concerns rats. The series can be described thus: blood pressure of rats on daily injection or oral administration. The format is in vivo. As to the method: (§2) Hydroxylation of tyrosine is the rate-limiting step of norepinephrine biosynthesis. Therefore, inhibition of tyrosine hydroxylase results in inhibition of norepinephrine synthesis in vivo which results in lowering the blood pressure. […] The hypotensive effect can be seen more markedly, when it is given to genetically hypertensive rats which was developed by Prof. Okamoto, Midical School, University of Kyoto. When 6.25 mg/Kg. was intraperitoneally injected to a rat of 185 mm. blood pressure and another rat of 188 mm., then the blood pressure was lowered to […]. and 118-162 mm. respectively during 1-22 hours after the injection. When 125 mg/Kg. was intraperitoneally injected to a rat of 195 mm., the pressure was reduced to 155-166 mm. during 1-22 hours after the injection. […] It caused 20-30% reduction which continued for about 5 days after the last oral administration.

Another series has as its system mice. The series can be described thus: sedative effect after injection of a large dose, mice. The format is in vivo.
Series [4] relates to genetically hypertensive rats. Description: hypotensive effect in genetically hypertensive rats. The format is in vivo. As to conditions: for blood pressure after injection: 1-22 hours after the injection. As to the method: as §2
Where [5] appears, read: oral, daily 3.1, 6.25, 12.5, 25 mg/Kg for three days.

For the molecule `O=C1CCC(=O)C1C(=O)CCc1cccc(Br)c1` [Example 53], the inhibition at tyrosine hydroxylase came to 50.7%.

With `CCOC(=O)c1ccc(CCC(=O)C2C(=O)CCC2=O)cc1` [Example 55], the inhibition on tyrosine hydroxylase came to 12.8%. With `O=C1CCC(=O)C1C(=O)CCc1ccc(Br)cc1` [Example 48], at tyrosine hydroxylase, the inhibition at 0.05 mg worked out at 50%.

For `CN(C)c1ccc(CCC(=O)C2C(=O)CCC2=O)cc1` [Example 58], the inhibition on tyrosine hydroxylase turned out to be 10.1%.

As to `O=C1CCC(=O)C1C(=O)CCc1ccc(O)c(O)c1` [Example 66, 2-(3,4-dihydroxyhydrocinnamoyl)-1,3-cyclopentanedione], the “inhibition to tyrosine hydroxylase” value against tyrosine hydroxylase (at 100 mcg/cc) was 85%. As to `O=C1CCC(=O)C1C(=O)CCc1cccc(C(F)(F)F)c1` [Example 59], the inhibition on tyrosine hydroxylase was determined as 30.5%. On the same count and under the same terms, under `COc1cccc(CCC(=O)C2C(=O)CCC2=O)c1` [Example 51] stands 6.4%. Regarding `COc1ccc(CCC(=O)C2C(=O)CCC2=O)cc1` [Example 41, 2-(4-Methoxyhydrocinnamoyl)-1,3-cyclopentanedione], at tyrosine hydroxylase, the inhibition at 0.1 mg came to 29%. Take `O=C1CCC(=O)C1C(=O)CCc1ccc(Cl)cc1` [Example 43, 2-(4-chlorohydrocinnamoyl)-1,3-cyclopentanedione]: the inhibition at 0.1 mg at tyrosine hydroxylase stood at 42%. Consider `COc1ccc(CCC(=O)C2C(=O)CCC2=O)cc1O` [Example 64, 2-(3-hydroxy-4-methoxyhydrocinnomoyl)-1,3-cyclopentanedione], for which the “inhibition to tyrosine hydroxylase” value on tyrosine hydroxylase (at 200 mcg/cc) came out at 29.5%. Turning to `O=C1CCC(=O)C1C(=O)CCc1ccc(Cl)c(Cl)c1` [Example 62, 2-(3,4-dichlorohydrocinnamoyl)-1,3-cyclopentanedione], the “inhibition to tyrosine hydroxylase” value at tyrosine hydroxylase (at 100 mcg/cc) worked out at 45%.

`O=C1CCC(=O)C1C(=O)CCc1ccc2c(c1)OCO2` [Example 63, 2-(3,4-methylenedioxyhydrocinnamoyl)-1,3-cyclopentanedione]: the “inhibition to tyrosine hydroxylase” value against tyrosine hydroxylase (at 100 mcg/cc) came to 22.5%. As for `O=C1CCC(=O)C1C(=O)CCc1ccccc1O` [Example 38, 2-(2-hydroxyhydrocinnamoyl)-1,3-cyclopentanedione], the LD50 turned out to be 283 mg/kg in series [1] (ip, intraperitoneal injection) and 550 mg/kg in series [1] (oral administration). Moreover, the figures for the “inhibition to tyrosine hydroxylase” value against tyrosine hydroxylase (at 12.5 mcg/cc), at tyrosine hydroxylase (at 25 mcg/cc) and against tyrosine hydroxylase (at 50 mcg/cc) were 30%, 38% and 44%, respectively. Moreover, the inhibition at 0.1 mg on tyrosine hydroxylase amounted to 52%. Also, the “relation with 2-amino-4-hydroxy-6,7-dimethyltetrahydropteridine (Lineweaver-Burk plot)” value at tyrosine hydroxylase (cofactor 2-amino-4-hydroxy-6,7-dimethyltetrahydropteridine) is “competitive”. Moreover, the “relation with tyrosine (Lineweaver-Burk plot)” value on tyrosine hydroxylase (substrate tyrosine) is on record as “uncompetitive”. Also, the hypotensive effect entry in the series with hypertensive patients was “showed hypotensive effect”. Also, in the series on hypertensive patients, the side effect result is “without any side effect”. The sedative effect entry with rats [2] was “did not cause sleeping and the sedative effect was not recognized”; in the series with mice it was “did not cause sleeping and the sedative effect was not recognized”. In addition, the “effect on blood pressure” value in the series with rats [3] is reported as “lowered the blood pressure”. The “blood pressure after injection” value is recorded as 25-155 mm in series [4] (6.25 mg/Kg intraperitoneally, rat of 185 mm. blood pressure); 118-162 mm in series [4] (6.25 mg/Kg intraperitoneally, rat of 188 mm. blood pressure); 155-166 mm in series [4] (125 mg/Kg intraperitoneally, rat of 195 mm. blood pressure). For the same molecule, the “duration of the blood pressure reduction after the last oral administration” value in series [4] (setting [5]) is recorded as “about 5 days”. For the same molecule, the “reduction of blood pressure” value in series [4] (setting [5]) was 20-30%. Regarding `CC(C)c1ccc(CCC(=O)C2C(=O)CCC2=O)cc1` [Example 54], on tyrosine hydroxylase, the inhibition stood at 36.8%. Consider `COc1cccc(CCC(=O)C2C(=O)CCC2=O)c1O` [Example 65, 2-(2-hydroxy-3-methoxyhydrocinnamoyl)-1,3-cyclopentanedione], for which the “inhibition to tyrosine hydroxylase” value against tyrosine hydroxylase (at 100 mcg/cc) turned out to be 5%.

On to `O=C1CCC(=O)C1C(=O)CCc1ccc(O)cc1` [Example 40, 2-(4-Hydroxyhydrocinnamoyl)-1,3-cyclopentanedione], for which the inhibition at 0.05 mg at tyrosine hydroxylase is 32%. With `O=C1CCC(=O)C1C(=O)CCc1ccccc1F` [Example 46], the inhibition on tyrosine hydroxylase amounted to 53%.

Consider `CCCOC(=O)c1ccc(CCC(=O)C2C(=O)CCC2=O)cc1` [Example 56], for which, at tyrosine hydroxylase, the inhibition was found to be 4.6%.

For the molecule `O=C1CCC(=O)C1C(=O)CCc1ccccc1Cl` [Example 42, 2-(2-chlorohydrocinnamoyl)-1,3-cyclopentanedione], the inhibition at 0.1 mg at tyrosine hydroxylase was found to be 10%. The same measure, in the same setting: the same measure for `CC(=O)Oc1ccccc1CCC(=O)C1C(=O)CCC1=O` [Example 60]: 10%; for `O=C1CCC(=O)C1C(=O)CCc1cccc(O)c1` [Example 39, 2-(3-hydroxyhydrocinnamoyl)-1,3-cyclopentanedione]: 23%. Turning to `N#Cc1ccc(CCC(=O)C2C(=O)CCC2=O)cc1` [Example 57], the inhibition at tyrosine hydroxylase stood at 77.4%.

Take `Cc1ccc(CCC(=O)C2C(=O)CCC2=O)cc1` [Example 49, 2-(4-methylhydrocinnamoyl)-1,3-cyclopentanedione]: the inhibition at tyrosine hydroxylase was 44%.

For the molecule `COc1ccccc1CCC(=O)C1C(=O)CCC1=O` [Example 47], the inhibition on tyrosine hydroxylase came out at 7.6%. Still for that read-out and setting: under `COC(=O)c1ccc(CCC(=O)C2C(=O)CCC2=O)cc1` [Example 50, 2-(4-Methoxycarbonylhydrocinnamoyl)-1,3-cyclopentanedione] stands 41%. On to `O=C1CCC(=O)C1C(=O)CCc1cccc(F)c1` [Example 44], for which the inhibition at 0.1 mg at tyrosine hydroxylase came to 36%.

Consider `COc1cc(CCC(=O)C2C(=O)CCC2=O)ccc1O` [Example 61, 2-(4-Hydroxy-3-methoxyhydrocinnamoyl)-1,3-cyclopentanedione], for which the “inhibition to tyrosine hydroxylase” value on tyrosine hydroxylase (at 200 mcg/cc) was “about 10%”. With `O=C1CCC(=O)C1C(=O)CCc1ccccc1` [Example 35, 2-hydrocinnamoyl-1,3-cyclopentanedione], the inhibition at 0.1 mg on tyrosine hydroxylase came to 60%. Take `CCOc1ccc(CCC(=O)C2C(=O)CCC2=O)cc1` [Example 52]: the inhibition on tyrosine hydroxylase was 15.6%. On to `O=C1CCC(=O)C1C(=O)CCc1ccc(F)cc1` [Example 45, 2-(4-Fluorohydrocinnamoyl)-1,3-cyclopentanedione], for which the inhibition at tyrosine hydroxylase was determined as 62%.
